Assay results published in the supplement of paper PMC10721915.
± gives the standard deviation of the averaged measurements.

What follows are test systems tested with COc1ccc([C@@H](O)c2cc(-c3ncnc4cc(N5CCOCC5)ccc34)c(F)cc2Cl)nn1 [peposertib] (assay: relative cell growth vs untreated control (GI, NCI-DTP normalisation with time-zero) (fraction of control growth); higher = more growth / less inhibition). Conditions: peposertib concentration 0.00488 µM; gamma irradiation dose (Gy): 0; treatment time: 120 h.
Procedure: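 Cancer cell lines were treated with peposertib (DNA-PK inhibitor) combined with gamma ionizing radiation (0, 2, 3 or 6 Gy) for 120 h, starting 48 h after seeding. Read-out was sulforhodamine B total-protein staining, normalised to untreated control and time-zero wells (NCI-DTP GI convention).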

Point of comparison: MDAMB231, relative cell growth 1.11. Against it:
- A204 — lower, 1.06
- A549 — lower, 1.031 ± 0.01
- A2780 — lower, 1.03
- ASPC1 — lower, 1.1
- BXPC3 — lower, 0.935
- CACO2 — lower, 0.994 ± 0.066
- COLO205 — lower, 0.984 ± 0.071
- DLD1 — lower, 1.01 ± 0.015
- DU145 — lower, 0.999
- EFO21 — lower, 1.05
- EJ28 — lower, 1.05
- HCT15 — lower, 0.998 ± 0.048
- HEPG2 — lower, 0.956
- HL60 — lower, 0.998
- HS578T — lower, 1.01
- HS729 — lower, 1.05
- HT29 — lower, 0.978 ± 0.029
- HT1080 — lower, 1.08
- IGROV1 — lower, 1.02
- J82 — lower, 1.02
- JIMT1 — lower, 0.999
- KASUMI1 — lower, 0.984
- L363 — lower, 0.996
- LOVO — lower, 1.01 ± 0.055
- MDAMB435 — lower, 0.989
- MDAMB436 — lower, 1.04
- MDAMB468 — lower, 1.04
- MHHES1 — lower, 0.994
- MIAPACA2 — lower, 1.05 ± 0.024
- MINO — lower, 0.833
- MT3 — lower, 0.994
- MV411 — lower, 0.937
- NCIH82 — lower, 0.982 ± 0.048
- NCIH292 — lower, 0.959 ± 0.031

Same assay, conditions: peposertib concentration 0.00488 µM; gamma irradiation dose (Gy): 3; treatment time: 120 h

Point of comparison: A549, relative cell growth 0.766. Against it:
- CACO2 — lower, 0.722
- COLO205 — lower, 0.413
- DLD1 — lower, 0.55
- HCT15 — lower, 0.555
- HT29 — higher, 0.885
- LOVO — lower, 0.384
- MIAPACA2 — lower, 0.592
- NCIH82 — lower, 0.219
- NCIH292 — lower, 0.526

Same assay, conditions: peposertib concentration 0.0195 µM; gamma irradiation dose (Gy): 0; treatment time: 120 h

Point of comparison: HEPG2, relative cell growth 0.977. Against it:
- A204 — higher, 1.01
- A549 — higher, 1.02 ± 0.014
- A2780 — higher, 1.04
- ASPC1 — lower, 0.966
- BXPC3 — lower, 0.946
- CACO2 — lower, 0.959 ± 0.018
- COLO205 — within error, 0.996 ± 0.039
- DLD1 — higher, 0.997 ± 0.014
- DU145 — higher, 0.996
- EFO21 — higher, 1.04
- EJ28 — higher, 1.02
- HCT15 — lower, 0.896 ± 0.056
- HL60 — lower, 0.975
- HS578T — higher, 1.01
- HS729 — higher, 1.06
- HT29 — within error, 0.9825 ± 0.0091
- HT1080 — higher, 1.09
- IGROV1 — higher, 1.02
- J82 — higher, 1.03
- JIMT1 — higher, 1.01
- KASUMI1 — lower, 0.968
- L363 — higher, 1
- LOVO — lower, 0.946 ± 0.026
- MDAMB231 — higher, 1.1
- MDAMB435 — higher, 1.03
- MDAMB436 — higher, 0.987
- MDAMB468 — lower, 0.969
- MHHES1 — higher, 0.99
- MIAPACA2 — higher, 1.07 ± 0.072
- MINO — lower, 0.904
- MT3 — higher, 0.98
- MV411 — lower, 0.935
- NCIH82 — higher, 1.016 ± 0.0085
- NCIH292 — higher, 1.017 ± 0.0086

Same assay, conditions: peposertib concentration 0.0195 µM; gamma irradiation dose (Gy): 3; treatment time: 120 h

Point of comparison: NCIH292, relative cell growth 0.511. Against it:
- A549 — higher, 0.613
- CACO2 — higher, 0.713
- COLO205 — lower, 0.367
- DLD1 — higher, 0.518
- HCT15 — lower, 0.482
- HT29 — higher, 0.857
- LOVO — lower, 0.357
- MIAPACA2 — higher, 0.546
- NCIH82 — lower, 0.187

Same assay, conditions: peposertib concentration 0.0781 µM; gamma irradiation dose (Gy): 0; treatment time: 120 h

Point of comparison: COLO205, relative cell growth 1.01 ± 0.044. Against it:
- A204 — lower, 0.892
- A549 — within error, 0.966 ± 0.019
- A2780 — within error, 1.02
- ASPC1 — within error, 1
- BXPC3 — lower, 0.903
- CACO2 — lower, 0.92 ± 0.033
- DLD1 — within error, 1 ± 0.042
- DU145 — lower, 0.96
- EFO21 — lower, 0.909
- EJ28 — within error, 1.02
- HCT15 — within error, 1.002 ± 0.0063
- HEPG2 — within error, 0.977
- HL60 — lower, 0.929
- HS578T — within error, 1.02
- HS729 — within error, 1.02
- HT29 — within error, 0.974 ± 0.023
- HT1080 — higher, 1.08
- IGROV1 — lower, 0.965
- J82 — within error, 0.991
- JIMT1 — within error, 0.999
- KASUMI1 — lower, 0.859
- L363 — within error, 0.98
- LOVO — lower, 0.83 ± 0.068
- MDAMB231 — higher, 1.06
- MDAMB435 — within error, 1.02
- MDAMB436 — within error, 0.992
- MDAMB468 — lower, 0.942
- MHHES1 — within error, 0.974
- MIAPACA2 — the same, 1.01 ± 0.022
- MINO — lower, 0.937
- MT3 — lower, 0.951
- MV411 — lower, 0.924
- NCIH82 — within error, 0.988 ± 0.034
- NCIH292 — lower, 0.924 ± 0.039

Same assay, conditions: peposertib concentration 0.0781 µM; gamma irradiation dose (Gy): 3; treatment time: 120 h

Point of comparison: MIAPACA2, relative cell growth 0.286. Against it:
- A549 — lower, 0.256
- CACO2 — higher, 0.595
- COLO205 — lower, 0.203
- DLD1 — higher, 0.389
- HCT15 — higher, 0.298
- HT29 — higher, 0.642
- LOVO — lower, 0.28
- NCIH82 — lower, 0.11
- NCIH292 — higher, 0.357

Same assay, conditions: peposertib concentration 0.313 µM; gamma irradiation dose (Gy): 0; treatment time: 120 h

Point of comparison: HT1080, relative cell growth 1.11. Against it:
- A204 — lower, 0.616
- A549 — lower, 0.782 ± 0.071
- A2780 — lower, 0.999
- ASPC1 — lower, 0.891
- BXPC3 — lower, 0.789
- CACO2 — lower, 0.85 ± 0.0095
- COLO205 — lower, 0.969 ± 0.029
- DLD1 — lower, 0.959 ± 0.033
- DU145 — lower, 0.874
- EFO21 — lower, 0.667
- EJ28 — lower, 0.945
- HCT15 — lower, 0.964 ± 0.028
- HEPG2 — lower, 0.91
- HL60 — lower, 0.808
- HS578T — lower, 0.947
- HS729 — lower, 0.867
- HT29 — lower, 0.906 ± 0.03
- IGROV1 — lower, 0.789
- J82 — lower, 0.876
- JIMT1 — lower, 0.906
- KASUMI1 — lower, 0.577
- L363 — lower, 0.813
- LOVO — lower, 0.617 ± 0.11
- MDAMB231 — lower, 1.04
- MDAMB435 — lower, 0.924
- MDAMB436 — lower, 0.795
- MDAMB468 — lower, 0.794
- MHHES1 — lower, 0.915
- MIAPACA2 — lower, 0.991 ± 0.07
- MINO — lower, 0.73
- MT3 — lower, 0.828
- MV411 — lower, 0.793
- NCIH82 — lower, 0.892 ± 0.15
- NCIH292 — lower, 0.684 ± 0.078

Same assay, conditions: peposertib concentration 0.313 µM; gamma irradiation dose (Gy): 3; treatment time: 120 h

Point of comparison: NCIH292, relative cell growth 0.21. Against it:
- A549 — lower, 0.0863
- CACO2 — higher, 0.322
- COLO205 — lower, 0.0736
- DLD1 — lower, 0.137
- HCT15 — lower, 0.147
- HT29 — lower, 0.152
- LOVO — lower, 0.186
- MIAPACA2 — lower, 0.086
- NCIH82 — lower, 0.0372

Same assay, conditions: peposertib concentration 1.25 µM; gamma irradiation dose (Gy): 0; treatment time: 120 h

Point of comparison: DU145, relative cell growth 0.618. Against it:
- A204 — lower, 0.298
- A549 — lower, 0.442 ± 0.079
- A2780 — higher, 0.858
- ASPC1 — higher, 0.67
- BXPC3 — lower, 0.437
- CACO2 — within error, 0.644 ± 0.03
- COLO205 — higher, 0.7949 ± 0.007
- DLD1 — higher, 0.842 ± 0.09
- EFO21 — lower, 0.352
- EJ28 — higher, 0.824
- HCT15 — higher, 0.792 ± 0.062
- HEPG2 — lower, 0.603
- HL60 — lower, 0.526
- HS578T — lower, 0.581
- HS729 — higher, 0.716
- HT29 — higher, 0.658 ± 0.021
- HT1080 — higher, 1.11
- IGROV1 — lower, 0.22
- J82 — higher, 0.64
- JIMT1 — lower, 0.561
- KASUMI1 — lower, 0.181
- L363 — lower, 0.39
- LOVO — lower, 0.348 ± 0.083
- MDAMB231 — higher, 0.995
- MDAMB435 — higher, 0.721
- MDAMB436 — lower, 0.541
- MDAMB468 — lower, 0.556
- MHHES1 — higher, 0.776
- MIAPACA2 — higher, 0.891 ± 0.18
- MINO — lower, 0.326
- MT3 — lower, 0.415
- MV411 — lower, 0.383
- NCIH82 — within error, 0.718 ± 0.24
- NCIH292 — lower, 0.33 ± 0.064

Same assay, conditions: peposertib concentration 1.25 µM; gamma irradiation dose (Gy): 3; treatment time: 120 h

Point of comparison: NCIH292, relative cell growth 0.0579. Against it:
- A549 — lower, 0.0255
- CACO2 — higher, 0.195
- COLO205 — higher, 0.0589
- DLD1 — lower, 0.0235
- HCT15 — higher, 0.0634
- HT29 — lower, 0.0553
- LOVO — higher, 0.0588
- MIAPACA2 — lower, 0.0368
- NCIH82 — lower, 0.0097

Same assay, conditions: peposertib concentration 5 µM; gamma irradiation dose (Gy): 0; treatment time: 120 h

Point of comparison: MINO, relative cell growth 0.0668. Against it:
- A204 — higher, 0.0711
- A549 — higher, 0.113 ± 0.013
- A2780 — higher, 0.156
- ASPC1 — higher, 0.22
- BXPC3 — higher, 0.137
- CACO2 — higher, 0.238 ± 0.01
- COLO205 — higher, 0.351 ± 0.04
- DLD1 — higher, 0.445 ± 0.091
- DU145 — higher, 0.287
- EFO21 — higher, 0.141
- EJ28 — higher, 0.554
- HCT15 — higher, 0.301 ± 0.074
- HEPG2 — higher, 0.211
- HL60 — higher, 0.238
- HS578T — higher, 0.182
- HS729 — higher, 0.422
- HT29 — higher, 0.252 ± 0.0096
- HT1080 — higher, 1
- IGROV1 — lower, -0.0182
- J82 — higher, 0.377
- JIMT1 — higher, 0.232
- KASUMI1 — lower, -0.0751
- L363 — lower, 0.0471
- LOVO — higher, 0.16 ± 0.064
- MDAMB231 — higher, 0.84
- MDAMB435 — higher, 0.207
- MDAMB436 — higher, 0.188
- MDAMB468 — higher, 0.222
- MHHES1 — higher, 0.458
- MIAPACA2 — higher, 0.611 ± 0.18
- MT3 — higher, 0.0961
- MV411 — higher, 0.0939
- NCIH82 — higher, 0.422 ± 0.055
- NCIH292 — lower, 0.00769 ± 0.042

Same assay, conditions: peposertib concentration 5 µM; gamma irradiation dose (Gy): 3; treatment time: 120 h

Point of comparison: NCIH82, relative cell growth 0.000329. Against it:
- A549 — higher, 0.0147
- CACO2 — higher, 0.098
- COLO205 — higher, 0.0686
- DLD1 — higher, 0.00897
- HCT15 — higher, 0.0278
- HT29 — higher, 0.0433
- LOVO — higher, 0.00966
- MIAPACA2 — higher, 0.0246
- NCIH292 — lower, -0.0162
